Results reported in patent US12391646B2, “Using adiponectin receptor agonists to treat inflammation and bone diseases in diabetes” (Trustees of Tufts College, priority 2020, dated 2025).

How the values were obtained:
[1] = cited from earlier work
[2] = system: LPS-induced Raw264.7 cells; assay: ELISA of IL-6 and IL-1β in supernatants of LPS-induced Raw264.7 cells; type: cell-based; settings: AdipoAI 5 μM 24 h then LPS 6 h
Procedure: FIG. 2 AdipoAI suppresses LPS-stimulated inflammatory responses in macrophages. (a) Raw264.7 cells or (b) BMMs were pretreated with APR (20 μM) or AdipoAI (5 μM) for 24 h followed by incubation with LPS (100 ng/mL) for additional 6 h for the measurement of IL-6 and IL-1β in supernatants by ELISA. Data were expressed as the mean±SEM at five biological independent experiments. One-way ANOVA test for multiple-group comparisons, * vs. LPS group, *P<0.05, significant differences between each indicated group. (c) PEMs were isolated from C57BL/6J mice (n=5 mice/group) were injected i.p. with ImL 4% thioglycolate solution or AdipoAI (25 mg/kg) for the measurement of IL-6 and IL-1β. The amounts of IL-6 and IL-1β in supernatant were measured by ELISA. Data were expressed as the mean±SEM (n=5). Two-tailed Student's t-test for two groups, *P<0.05, significant differences between each indicated group. (d-f) Impact of AdipoAI on basal (d) and LPS-induced expression of an array of proinflammatory cytokines, chemokines, and receptors (e,f) in Raw264.7 cells (4 groups and 3 biological replicates/group). Data analyses were performed according to the manufacturer's instructions with their web-based software package (www.qiagen.com/us/shop/genes-and-pathways/data-analysis-center overview-page/). […]

[3] = system: APPL1/MyD88 interaction; assay: Co-immunoprecipitation of AdipoR1, APPL1 and MyD88 in Raw264.7 cells; type: cell-based; settings: AdipoAI (5 μM) and LPS-treated cells compared to control cells
Procedure: FIG. 6 Involvement of APPL1/MyD88 interaction in the anti-inflammatory effects of AdipoAI in macrophages. (a) RAW 264.7 cells were transfected with siRNA targeting MyD88, c-Maf or scrambled control siRNA for 24 h, followed by stimulation with LPS for 6 h. Transfection efficiency of siRNA and mRNA expression levels of proinflammatory cytokines were measured by qPCR and normalized with GAPDH mRNA levels. Data were expressed as the mean±SEM at five biological independent experiments. One-way ANOVA test for multiple-group comparisons, * vs. LPS+Scrambled group, *P<0.05, significant differences between each indicated group. ns, not significant. (b) Raw264.7 cells were transfected with siRNA targeting MyD88 or scrambled control siRNA for 24 h, followed by stimulation with LPS for 30 min for measurement of related proteins. Representative images are shown along with β-actin as an internal loading control and densitometric analysis. Densitometry values-MyD88: 1.00, 0.24, 1.20, 0.33; pIRAK4: 1.00, 0.00; p-P38: 1.00, 0.11. […] Proteins immunoprecipitated with the anti-MyD88 antibody were analyzed by immunoblotting with antibodies for MyD88, APPL1, and AdipoR1. […]
The RAW 264.7 macrophages were seeded at a density of 6×10^6 cells per 100 mm dish. […] The immunoprecipitates were washed with lysis buffer and further analyzed by polyacrylamide gel electrophoresis and Western blot analyses. […]

Row | SMILES | solubility [1] | IL-6 and IL-1β protein levels (ELISA) [2] | interaction of APPL1 with MyD88 (Co-IP) [3]
1 | O=C(COc1ccc(C(=O)c2ccccc2)cc1)NC1CCN(Cc2ccccc2)CC1 [AdipoRon, reference compound] | relatively low solubility | – | –
2 | COc1ccc(CN2CCC(NC(=O)COc3ccc(C(=O)c4ccc(Cl)cc4)cc3)CC2)cc1 [Compound 3] | – | decreased IL-6 and IL-1β protein levels | the interaction of APPL1 with MyD88 was increased
